The term IC50 denotes the concentration at which inhibition is half-maximal.

Data set [1] relates to primary human osteoclast (OC) precursors. In words: Osteoclast differentiation assay (TRAP staining). It counts as cell-based. How it is done:
Osteoclast differentiation assays. Primary human osteoclast (OC) precursors (Cambrex) were seeded at 10,000 cells/well (50,000 cells/ml) in osteoclast precursor growth medium (Cambrex). The cells were cultured for 7 days in the presence of either M-CSF (33 ng/ml), M-CSF (33 ng/ml) and RANKL (33 ng/ml), or in the presence of both cytokines and different concentrations of the MetAP-2 inhibitor. OC differentiation was determined by staining for the OC marker TRAP, using a leukocyte acid phosphatase kit (Sigma). Briefly, after 7 days in culture, the cells were rinsed once with PBS, fixed with 37% formaldehyde in acetone-citrate buffer for 1 min, and stained for development of red color according to the manufacturer's instructions.
(§1) The instant invention features such an inhibitor. In order to investigate the activity of the MetAP-2 inhibitor on osteoclast (OC) differentiation and bone resorption in vitro, yet another cell type critically associated with R^A pathogenesis in an in vitro osteoclastogenesis model was utilized. Primary human OC precursors were cultured for 7 days in the presence of M-CSF and RANKL, and vehicle or increasing concentrations of the MetAP-2 inhibitor.

For data set [2], the system named is primary human OC cultured on human bone particles. Put plainly: Bone resorption in vitro, CTX-I ELISA of culture supernatant. The format is cell-based. How it is done: (§2) ELISAs for cartilage and bone biochemical turnover markers. The amount of COMP in serum was measured with a competitive enzyme immunoassay (MD Biosciences, Inc) according to the manufacturer's instructions. The detection limit of this ELISA was 0.2 U/L. Helical peptide (amino acids 620 to 633) from the α1 chain of bone-specific human CTX-I was measured either in cell culture supernatants of primary human OC precursors cultured as described above, or in urine with a competitive enzyme immunoassay (Quidel Corporation). The detection limit of this ELISA was 8 μg/L. All CTX-I measurements in urine were corrected for urinary creatinine excretion for each sample to account for potential differences in renal clearance rates among the different study groups. Urinary creatinine was measured with a colorimetric assay (Quidel Corporation).
To determine whether the inhibition of OC differentiation by the MetAP-2 inhibitor in vitro correlated with the inhibition of bone resorption in vitro, primary human OC were cultured on a thin layer of human bone particles in the presence of M-CSF and RANKL, and vehicle or increasing concentrations of the MetAP-2 inhibitor. […] After 7 days, the culture supernatant was collected and the amount of bone-specific collagen type I C-terminal helical peptide (CTX-I) was measured by ELISA.
In general terms: In an ELISA, binding on a coated surface is turned into a signal by an enzyme label.

The test system of data set [3] is primary human OC precursors. Put plainly: Cytotoxicity in OC precursor culture. It counts as cell-based. To be noted: concentrations up to 100 nM. The procedure:
as §1

Data set [4] relates to PG-PS-induced arthritis. In words: Rat model of PG-PS induced arthritis, paw swelling. The format is in vivo. Conditions: 1, 5 and 10 mg/kg p.o. qod, day 15 to 31, versus vehicle.
Experimental: Rat model of PG-PS induced arthritis. Female Lewis rats (109-130 g) were received from Charles River Laboratories. Food and water were available ad libitum. PG-PS (25 mg/kg) was injected i.p. on day 1 and responding animals were randomized into treatment groups on day 14. Vehicle (11% HPCD in PBS), dex and the MetAP-2 inhibitor (1, 5, and 10 mg/kg) were administered p.o., qod. Paw swelling was monitored using a plethysmometer (Stoelting Co., Woodale, Ill.) according to instrument specifications. The volumes of the two hind paws were measured and averaged on day 1, 4, 6, 8, 10, 13, 15, 17, 20, 22, 23, 27, 29 and 31. Ten animals were assigned to each group except the vehicle group and animals which received no PG-PS, but 10 mg/kg MetAP-2 inhibitor (n=4).
Therapeutic dosing of animals administered the MetAP-2 inhibitor orally (p.o.) at 1, 5 and 10 mg/kg, every other day (qod), or vehicle started at day 15 after the chronic destructive phase of the disease was established and terminated on day 31.
The subject of another data set is CTX-I. Put plainly: Urinary CTX-I ELISA in rat PG-PS arthritis model. The format is in vivo. To be noted: 1, 5 and 10 mg/kg p.o. qod. How it is done:
as §2
To assess the activity of the MetAP-2 inhibitor on systemic bone resorption in vivo, the amount of systemic CTX-I in urine was measured and corrected for urinary creatinine excretion after conclusion of the study.

Data set [5] relates to PG-PS-induced arthritis. In words: Microfocal computed tomography of hind joints in rat PG-PS arthritis model. The format is in vivo. The procedure:
Microfocal computed tomography. All specimens were scanned on a Scanco Medical AG μCT 40 system. Images were obtained with an isotropic voxel resolution of 20 microns. A matrix size of 1024×1024 with 1000 projections was utilized for all scans. A total of 1836 slices were scanned for each specimen (the number of slices scanned was determined by the length of the scan needed to cover the entire ankle including the distal tibia). The scan time per specimen was approximately 2.6 hours. The images were then volume rendered using a fixed threshold (at two different thresholds: 255 and 140). The total bone volume and BMD were calculated over the same regions of all the specimens. Micro-CT was performed at Scanco USA, Incorporated.
Finally, the activity of the MetAP-2 inhibitor on the structural preservation of hind joints in rats with established disease was investigated.
The ankles including the distal tibia were scanned using a Scanco Medical AG μCT 40 system (threshold: 255), and the total bone volume and BMD were calculated over the same regions of all specimens.

Data set [6] has as its system HFLS-R^A. Conditions: in vitro; cited from earlier work.
Another data set concerns HUVEC. To be noted: 100 nM; cited from earlier work.
The subject of data set [7] is HFLS-R^A. Conditions: 100 nM; cited from earlier work.
[8] abbreviates: PG-PS arthritis, 10 mg/kg, threshold 255.

For the compound `CO[C@@H]1[C@H](OC(=O)N[C@@H](C(N)=O)C(C)C)CC[C@]2(CO2)[C@H]1[C@@]1(C)O[C@@H]1CC=C(C)C` [MetAP-2 inhibitor, (1-Carbamoyl-2-methyl-propyl)-carbamic acid-(3R,4S,5S,6R)-5-methoxy-4-[(2R,3R)-2-methyl-3-(3-methyl-but-2-enyl)-oxiranyl]-1-oxa-spiro[2,5]oct-6-yl ester], in data set [1], the “reversibility of the inhibition of OC differentiation” value is on record as “fully reversible”. Moreover, the “inhibition of OC differentiation” value in [1] (concentration ≦0.1 nM) is reported as “no detectable inhibition”. The “generation of TRAP-positive mononuclear and multinucleated OC” value in data set [1] (concentrations at ≦1 nM, 7 days with M-CSF and RANKL) was “almost completely inhibited”. Besides, the IC50 in data set [2] (168 h, 7 days, M-CSF and RANKL, human bone particles, read-out: IC50, bone resorbing activity of OC (CTX-I)) was no more than 0.1 nM. Besides, the “degree of inhibition of bone resorption” value in data set [2] (at 1 nM and 10 nM, versus E-64 at 100 nM) is on record as “comparable to the inhibitory activity of E-64 at 100 nM”. The cytotoxicity entry in data set [3] was “did not induce cytotoxicity”. Further, the “joint swelling and inflammation, paw swelling of the hind limbs” value in the data set with PG-PS-induced arthritis [4] is “significant amelioration”. Further, in the data set on CTX-I, the “systemic urinary CTX-I levels corrected for creatinine, versus vehicle” value was “significantly decreased”. The “structural integrity of hind joints, three-dimensional micro-CT images” value in the data set with PG-PS-induced arthritis [5] (10 mg/kg p.o. qod, versus vehicle) is “protected the structural integrity of the joints and prevented focal bone erosions”. Besides, in the data set with PG-PS-induced arthritis [5] (setting [8]), the BMD is 1087 ± 17.44 mg HA/ccm and the “Bone Volume (Vox-BV)” value is listed as 213.8 ± 5.23. The “inhibition of proliferation of HFLS-RA” value with HFLS-R^A [6] is “potently inhibit”. In the data set on HUVEC, the “induction of apoptosis in HUVEC” value is “did not induce apoptosis”. Besides, the “induction of apoptosis in HFLS-RA” value with HFLS-R^A [7] was “did not induce apoptosis”.

The values are drawn from patent publication US20070254843A1, “Methods for treating bone associated diseases by the use of methionine aminopeptidase-2 inhibitors” (Praecis Pharmaceuticals Incorporated, priority 2006, published 2007).
